Measured values as given in patent publication US20250186463A1, “ABIRATERONE DECANOATE PRODRUGS AND USE IN THERAPY” (PROPELLA THERAPEUTICS, INC., priority 2022, published 2025).

Legend:
[1] = IM injection of abiraterone acetate formulations in rats; format: in vivo; details: vegetable oil solution versus aqueous suspension
Procedure: Typically, the abiraterone prodrugs of the present disclosure are formulated as a non-aqueous solution or suspension. In some embodiments, the non-aqueous solution or suspension provides higher levels of abiraterone in the plasma for a longer duration, when compared to an aqueous solution or suspension. For example, as detailed herein, IM injections of an aqueous suspension and a vegetable oil solution of the abiraterone acetate prodrug were evaluated in rats. […] Accordingly, in some embodiments, the abiraterone prodrug formulations herein can include an abiraterone prodrug of the present disclosure (e.g., compound of Formula I or II) dissolved or dispersed in a pharmaceutically acceptable carrier. In some embodiments, the pharmaceutically acceptable carrier can be any suitable nonaqueous vehicle suitable for injection, such as those described in U.S. Pharmacopeia. In some embodiments, the pharmaceutically acceptable carrier can be a pharmaceutically acceptable oil, e.g., a vegetable oil, castor oil, corn oil, sesame oil, cottonseed oil, peanut oil, poppy seed oil, tea seed oil, or soybean oil. In some embodiments, the pharmaceutically acceptable oil can be oils (e.g., described herein), suitable for use as vehicles for injection, e.g., meeting the criteria as described in the corresponding U.S. Pharmacopeia monograph. […]

[2] = tested on: mineralocorticoids, progesterone and pregnenolone; details: cited from earlier work

Which results are given for `CC(=O)O[C@H]1CC[C@@]2(C)C(=CC[C@@H]3[C@@H]2CC[C@]2(C)C(c4cccnc4)=CC[C@@H]32)C1` [abiraterone acetate, (3)-17-(3-Pyridyl)androsta-5, acetate]?
blood plasma levels and duration of exposure of abiraterone [1]: highest blood plasma levels and the longest duration of exposure; increases in concentrations of mineralocorticoids ([2]; oral administration): 80 fold; men with signs and symptoms of mineralocorticoid excess (hypertension, hypokalemia, edema) ([2]; oral administration): 30%; increases in progesterone and pregnenolone ([2]; oral regimen): 40 fold
